Results: ChEMBL document CHEMBL4507296 (2021)
Activity calls are given as the source filed them. The rule behind the calls is not given here.

Assays:
[1] = molecular target: Ribosomal protein S6 kinase alpha-6 (Homo sapiens) (UniProt Q9UK32); conditions: Compound concentration 1000.0 nM
[2] = molecular target: Calcium/calmodulin-dependent protein kinase type 1G (Homo sapiens) (UniProt Q96NX5); conditions: Compound concentration 1000.0 nM
[3] = molecular target: Calcium/calmodulin-dependent protein kinase type IV (Homo sapiens) (UniProt Q16566); conditions: Compound concentration 1000.0 nM
[4] = molecular target: Activin receptor type-1B (Homo sapiens) (UniProt P36896); conditions: Compound concentration 1000.0 nM
[5] = molecular target: Phosphatidylinositol 3-kinase C2 domain-containing subunit gamma (Homo sapiens) (UniProt O75747); conditions: Compound concentration 1000.0 nM
[6] = molecular target: Serine/threonine-protein kinase NIM1 (Homo sapiens) (UniProt Q8IY84); conditions: Compound concentration 1000.0 nM
Serine/threonine-protein kinase NIM1 (Homo sapiens), sequence (Q8IY84 whole entry): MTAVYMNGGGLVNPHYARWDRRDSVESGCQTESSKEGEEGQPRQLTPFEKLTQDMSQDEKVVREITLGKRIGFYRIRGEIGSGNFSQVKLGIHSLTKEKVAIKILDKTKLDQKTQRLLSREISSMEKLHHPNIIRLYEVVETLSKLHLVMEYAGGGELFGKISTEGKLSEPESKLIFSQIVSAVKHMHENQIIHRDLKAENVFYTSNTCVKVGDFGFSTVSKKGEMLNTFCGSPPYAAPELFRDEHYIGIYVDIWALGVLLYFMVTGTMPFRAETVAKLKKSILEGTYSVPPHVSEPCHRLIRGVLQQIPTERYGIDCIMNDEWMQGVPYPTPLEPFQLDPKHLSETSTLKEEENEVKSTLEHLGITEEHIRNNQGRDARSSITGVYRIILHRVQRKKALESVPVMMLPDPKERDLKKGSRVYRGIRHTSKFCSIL

[7] = tested on: ALK tyrosine kinase receptor (Homo sapiens), Q9UM73 [C1156Y]; conditions: Compound concentration 1000.0 nM
[8] = molecular target: Transient receptor potential cation channel subfamily M member 8 (Homo sapiens, UniProt Q7Z2W7); assay: Voltage activation at 12 °C
Transient receptor potential cation channel subfamily M member 8, sequence (Q7Z2W7 whole entry): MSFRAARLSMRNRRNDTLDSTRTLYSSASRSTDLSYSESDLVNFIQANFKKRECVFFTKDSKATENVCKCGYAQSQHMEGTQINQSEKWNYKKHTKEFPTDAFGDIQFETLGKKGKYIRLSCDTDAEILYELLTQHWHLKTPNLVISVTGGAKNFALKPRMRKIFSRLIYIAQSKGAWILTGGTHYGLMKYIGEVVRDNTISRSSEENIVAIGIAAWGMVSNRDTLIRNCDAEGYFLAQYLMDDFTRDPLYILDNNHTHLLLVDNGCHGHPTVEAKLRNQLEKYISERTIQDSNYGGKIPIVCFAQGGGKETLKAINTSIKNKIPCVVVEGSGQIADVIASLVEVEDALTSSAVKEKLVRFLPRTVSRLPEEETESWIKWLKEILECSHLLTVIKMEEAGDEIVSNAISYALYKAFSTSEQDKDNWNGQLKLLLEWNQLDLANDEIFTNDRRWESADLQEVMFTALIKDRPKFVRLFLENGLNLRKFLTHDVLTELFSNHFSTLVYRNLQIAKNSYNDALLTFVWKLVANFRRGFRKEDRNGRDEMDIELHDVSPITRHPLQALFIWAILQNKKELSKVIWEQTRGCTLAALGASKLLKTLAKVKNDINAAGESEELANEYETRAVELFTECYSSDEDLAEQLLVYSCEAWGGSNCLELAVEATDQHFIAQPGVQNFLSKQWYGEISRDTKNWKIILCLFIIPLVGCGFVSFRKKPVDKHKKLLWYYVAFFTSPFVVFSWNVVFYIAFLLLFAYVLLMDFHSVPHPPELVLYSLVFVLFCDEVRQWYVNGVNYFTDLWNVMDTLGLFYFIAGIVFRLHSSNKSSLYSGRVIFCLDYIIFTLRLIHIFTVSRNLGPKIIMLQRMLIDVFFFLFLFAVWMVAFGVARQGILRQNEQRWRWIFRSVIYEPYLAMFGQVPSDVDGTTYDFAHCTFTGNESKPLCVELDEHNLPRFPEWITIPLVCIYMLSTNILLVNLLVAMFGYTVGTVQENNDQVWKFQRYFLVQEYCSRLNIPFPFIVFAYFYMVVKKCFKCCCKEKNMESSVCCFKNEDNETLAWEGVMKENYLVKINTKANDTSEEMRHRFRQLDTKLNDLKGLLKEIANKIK

[9] = molecular target: Substance-P receptor (Homo sapiens) (UniProt P25103); assay: Neurokinin 1 (human) CEREP ligand profiling; conditions: Compound concentration 10.0 uM
Substance-P receptor (Homo sapiens), sequence (P25103 whole entry): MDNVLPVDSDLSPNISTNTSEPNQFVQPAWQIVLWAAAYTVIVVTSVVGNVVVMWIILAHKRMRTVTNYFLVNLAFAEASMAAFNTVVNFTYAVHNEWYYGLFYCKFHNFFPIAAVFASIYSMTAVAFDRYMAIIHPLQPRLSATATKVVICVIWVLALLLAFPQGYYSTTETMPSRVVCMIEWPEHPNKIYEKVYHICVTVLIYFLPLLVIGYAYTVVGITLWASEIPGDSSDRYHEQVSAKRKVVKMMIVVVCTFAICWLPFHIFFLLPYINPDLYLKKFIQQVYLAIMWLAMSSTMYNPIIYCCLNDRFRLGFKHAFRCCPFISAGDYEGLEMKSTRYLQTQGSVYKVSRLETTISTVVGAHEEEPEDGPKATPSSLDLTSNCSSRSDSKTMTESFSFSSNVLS

[10] = molecular target: Epidermal growth factor receptor (Homo sapiens) (UniProt P00533); conditions: Compound concentration 1000.0 nM
[11] = molecular target: Proto-oncogene tyrosine-protein kinase Src (Homo sapiens) (UniProt P12931); conditions: Compound concentration 1000.0 nM
[12] = molecular target: Serine/threonine-protein kinase MAK (Homo sapiens) (UniProt P20794); conditions: Compound concentration 1000.0 nM
[13] = molecular target: Dual serine/threonine and tyrosine protein kinase (Homo sapiens) (UniProt Q6XUX3); conditions: Compound concentration 1000.0 nM
[14] = molecular target: Dual specificity protein kinase CLK1 (Homo sapiens) (UniProt P49759); conditions: Compound concentration 1000.0 nM
[15] = molecular target: Leukocyte tyrosine kinase receptor (Homo sapiens) (UniProt P29376); conditions: Compound concentration 1000.0 nM
[16] = molecular target: Alpha-1B adrenergic receptor (Homo sapiens) (UniProt P35368); conditions: Compound concentration 10.0 uM
[17] = molecular target: Serine/threonine-protein kinase TAO1 (Homo sapiens) (UniProt Q7L7X3); conditions: Compound concentration 1000.0 nM
[18] = molecular target: Inhibitor of nuclear factor kappa-B kinase subunit beta (Homo sapiens) (UniProt O14920); conditions: Compound concentration 1000.0 nM
[19] = molecular target: Mitogen-activated protein kinase 12 (Homo sapiens) (UniProt P53778); conditions: Compound concentration 1000.0 nM
Mitogen-activated protein kinase 12 (Homo sapiens), sequence (P53778 whole entry): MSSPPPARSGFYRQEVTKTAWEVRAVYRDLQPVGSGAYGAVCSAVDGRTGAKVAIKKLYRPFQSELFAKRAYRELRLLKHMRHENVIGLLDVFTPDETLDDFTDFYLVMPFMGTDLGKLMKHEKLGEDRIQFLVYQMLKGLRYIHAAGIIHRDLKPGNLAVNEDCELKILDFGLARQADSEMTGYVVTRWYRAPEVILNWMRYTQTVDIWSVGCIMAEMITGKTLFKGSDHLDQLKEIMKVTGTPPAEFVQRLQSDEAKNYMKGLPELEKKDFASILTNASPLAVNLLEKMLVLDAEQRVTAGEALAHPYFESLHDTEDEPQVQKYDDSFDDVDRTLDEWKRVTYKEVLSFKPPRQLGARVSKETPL

[20] = molecular target: Death-associated protein kinase 1 (Homo sapiens) (UniProt P53355); conditions: Compound concentration 1000.0 nM
[21] = molecular target: Receptor tyrosine-protein kinase erbB-2 (Homo sapiens) (UniProt P04626); conditions: Compound concentration 1000.0 nM
[22] = molecular target: Serine/threonine-protein kinase MARK2 (Homo sapiens) (UniProt Q7KZI7); conditions: Compound concentration 1000.0 nM
[23] = molecular target: Tyrosine-protein kinase TXK (Homo sapiens) (UniProt P42681); conditions: Compound concentration 1000.0 nM
Tyrosine-protein kinase TXK (Homo sapiens), sequence (P42681 whole entry): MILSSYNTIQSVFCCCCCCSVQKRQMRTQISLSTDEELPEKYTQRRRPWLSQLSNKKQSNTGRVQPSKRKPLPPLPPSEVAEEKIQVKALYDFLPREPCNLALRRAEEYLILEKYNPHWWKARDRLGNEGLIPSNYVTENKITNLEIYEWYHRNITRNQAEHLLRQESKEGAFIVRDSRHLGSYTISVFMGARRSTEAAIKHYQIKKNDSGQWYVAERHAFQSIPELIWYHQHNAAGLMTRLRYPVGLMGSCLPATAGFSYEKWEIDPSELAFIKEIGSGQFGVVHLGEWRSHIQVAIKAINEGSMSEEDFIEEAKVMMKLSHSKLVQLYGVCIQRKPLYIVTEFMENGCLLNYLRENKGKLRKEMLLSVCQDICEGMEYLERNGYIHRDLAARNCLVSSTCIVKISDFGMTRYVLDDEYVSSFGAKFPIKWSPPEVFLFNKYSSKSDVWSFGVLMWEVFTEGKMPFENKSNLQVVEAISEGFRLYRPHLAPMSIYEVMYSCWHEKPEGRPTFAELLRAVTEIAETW

[24] = molecular target: Ephrin type-B receptor 3 (Homo sapiens) (UniProt P54753); conditions: Compound concentration 1000.0 nM
[25] = tested on: ALK tyrosine kinase receptor (Homo sapiens), Q9UM73 [L1196M]; conditions: Compound concentration 1000.0 nM
[26] = molecular target: Ephrin type-B receptor 4 (Homo sapiens) (UniProt P54760); conditions: Compound concentration 1000.0 nM
[27] = molecular target: Activin receptor type-2B (Homo sapiens) (UniProt Q13705); conditions: Compound concentration 1000.0 nM
[28] = molecular target: Homeodomain-interacting protein kinase 3 (Homo sapiens) (UniProt Q9H422); conditions: Compound concentration 1000.0 nM
[29] = molecular target: Ribosomal protein S6 kinase alpha-5 (Homo sapiens) (UniProt O75582); conditions: Compound concentration 1000.0 nM
[30] = molecular target: Macrophage-stimulating protein receptor (Homo sapiens) (UniProt Q04912); conditions: Compound concentration 1000.0 nM
[31] = molecular target: Serine/threonine-protein kinase 32C (Homo sapiens) (UniProt Q86UX6); conditions: Compound concentration 1000.0 nM
[32] = tested on: Proto-oncogene tyrosine-protein kinase receptor Ret (Homo sapiens), P07949 [V804L]; conditions: Compound concentration 1000.0 nM
[33] = molecular target: Cyclin-dependent kinase 17 (Homo sapiens) (UniProt Q00537); conditions: Compound concentration 1000.0 nM
[34] = molecular target: Serine/threonine-protein kinase 16 (Homo sapiens) (UniProt O75716); conditions: Compound concentration 1000.0 nM
[35] = molecular target: Mitogen-activated protein kinase kinase kinase 1 (Homo sapiens) (UniProt Q13233); conditions: Compound concentration 1000.0 nM
[36] = molecular target: Tyrosine-protein kinase Lck (Homo sapiens) (UniProt P06239); conditions: Compound concentration 1000.0 nM
[37] = molecular target: Mitogen-activated protein kinase kinase kinase 2 (Homo sapiens) (UniProt Q9Y2U5); conditions: Compound concentration 1000.0 nM
[38] = tested on: Mast/stem cell growth factor receptor Kit (Homo sapiens), P10721 [L576P]; conditions: Compound concentration 1000.0 nM
Mast/stem cell growth factor receptor Kit (Homo sapiens), P10721 [L576P], sequence (P10721 whole entry L576P): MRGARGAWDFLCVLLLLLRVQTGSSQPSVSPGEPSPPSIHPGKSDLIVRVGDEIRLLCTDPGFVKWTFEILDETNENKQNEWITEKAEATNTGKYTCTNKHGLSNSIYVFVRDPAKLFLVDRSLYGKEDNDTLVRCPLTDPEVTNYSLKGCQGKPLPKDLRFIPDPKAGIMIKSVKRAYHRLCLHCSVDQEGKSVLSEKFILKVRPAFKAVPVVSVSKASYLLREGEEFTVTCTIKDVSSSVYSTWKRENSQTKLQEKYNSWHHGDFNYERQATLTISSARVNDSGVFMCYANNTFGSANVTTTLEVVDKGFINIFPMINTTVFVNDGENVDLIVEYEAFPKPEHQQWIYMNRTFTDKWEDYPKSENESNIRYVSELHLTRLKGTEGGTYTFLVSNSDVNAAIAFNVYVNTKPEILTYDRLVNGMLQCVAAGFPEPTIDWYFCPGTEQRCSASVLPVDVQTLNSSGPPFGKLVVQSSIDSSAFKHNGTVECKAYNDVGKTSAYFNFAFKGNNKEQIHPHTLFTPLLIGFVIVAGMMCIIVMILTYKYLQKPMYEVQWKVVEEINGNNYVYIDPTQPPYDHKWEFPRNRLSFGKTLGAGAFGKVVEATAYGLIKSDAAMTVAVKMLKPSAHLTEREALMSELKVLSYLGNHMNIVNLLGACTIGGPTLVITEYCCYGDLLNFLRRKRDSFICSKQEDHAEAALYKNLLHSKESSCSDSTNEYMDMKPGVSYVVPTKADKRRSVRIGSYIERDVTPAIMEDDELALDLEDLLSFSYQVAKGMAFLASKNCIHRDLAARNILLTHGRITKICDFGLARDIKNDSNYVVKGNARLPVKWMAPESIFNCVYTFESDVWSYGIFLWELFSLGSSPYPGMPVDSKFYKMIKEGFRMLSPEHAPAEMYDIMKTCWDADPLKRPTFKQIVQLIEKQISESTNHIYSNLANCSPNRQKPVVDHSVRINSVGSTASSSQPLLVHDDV

[39] = molecular target: Serine/threonine-protein kinase Nek1 (Homo sapiens) (UniProt Q96PY6); conditions: Compound concentration 1000.0 nM
Serine/threonine-protein kinase Nek1 (Homo sapiens), sequence (Q96PY6 whole entry): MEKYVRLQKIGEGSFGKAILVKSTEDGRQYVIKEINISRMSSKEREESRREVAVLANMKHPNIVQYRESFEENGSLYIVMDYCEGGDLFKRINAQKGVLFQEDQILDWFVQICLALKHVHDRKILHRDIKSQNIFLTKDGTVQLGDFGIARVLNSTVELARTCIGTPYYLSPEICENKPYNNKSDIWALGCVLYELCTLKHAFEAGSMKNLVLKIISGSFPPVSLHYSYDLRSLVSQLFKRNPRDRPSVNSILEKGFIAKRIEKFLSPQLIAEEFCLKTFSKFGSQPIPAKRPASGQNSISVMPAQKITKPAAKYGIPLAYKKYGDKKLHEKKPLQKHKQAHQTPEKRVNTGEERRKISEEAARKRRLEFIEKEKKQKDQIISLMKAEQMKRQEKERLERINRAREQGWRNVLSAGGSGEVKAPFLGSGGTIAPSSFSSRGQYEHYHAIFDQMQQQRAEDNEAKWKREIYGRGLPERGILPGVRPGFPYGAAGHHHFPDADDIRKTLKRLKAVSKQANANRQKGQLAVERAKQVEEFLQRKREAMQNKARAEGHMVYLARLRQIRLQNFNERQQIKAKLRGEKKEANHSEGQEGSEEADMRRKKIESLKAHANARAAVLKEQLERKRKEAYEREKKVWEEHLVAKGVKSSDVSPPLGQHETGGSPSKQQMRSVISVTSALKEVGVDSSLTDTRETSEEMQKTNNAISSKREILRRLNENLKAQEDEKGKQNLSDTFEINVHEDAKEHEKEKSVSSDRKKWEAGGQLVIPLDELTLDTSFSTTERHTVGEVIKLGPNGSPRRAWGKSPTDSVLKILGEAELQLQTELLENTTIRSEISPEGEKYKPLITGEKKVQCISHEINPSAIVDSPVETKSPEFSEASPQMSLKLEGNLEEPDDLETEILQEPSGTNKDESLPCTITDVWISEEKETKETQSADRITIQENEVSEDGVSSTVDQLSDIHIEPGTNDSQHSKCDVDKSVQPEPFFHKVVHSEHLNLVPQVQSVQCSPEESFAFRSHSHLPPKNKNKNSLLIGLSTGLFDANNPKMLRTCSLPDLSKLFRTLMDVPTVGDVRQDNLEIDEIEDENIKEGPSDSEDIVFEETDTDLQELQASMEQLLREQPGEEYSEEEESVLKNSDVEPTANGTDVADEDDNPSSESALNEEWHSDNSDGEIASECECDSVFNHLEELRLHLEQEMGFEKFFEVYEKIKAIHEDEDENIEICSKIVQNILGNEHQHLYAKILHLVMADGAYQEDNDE

[40] = molecular target: Serine/threonine-protein kinase NLK (Homo sapiens) (UniProt Q9UBE8); conditions: Compound concentration 1000.0 nM
[41] = molecular target: Serine/threonine-protein kinase 17A (Homo sapiens) (UniProt Q9UEE5); conditions: Compound concentration 1000.0 nM
[42] = molecular target: Serine/threonine-protein kinase VRK2 (Homo sapiens) (UniProt Q86Y07); conditions: Compound concentration 1000.0 nM
[43] = molecular target: Dual specificity protein kinase CLK3 (Homo sapiens) (UniProt P49761); conditions: Compound concentration 1000.0 nM
[44] = molecular target: Cyclin-dependent kinase 4 (Homo sapiens) (UniProt P11802); conditions: Compound concentration 1000.0 nM
[45] = molecular target: Testis-specific serine/threonine-protein kinase 3 (Homo sapiens) (UniProt Q96PN8); conditions: Compound concentration 1000.0 nM
[46] = molecular target: Hormonally up-regulated neu tumor-associated kinase (Homo sapiens) (UniProt P57058); conditions: Compound concentration 1000.0 nM

In the case of `C[C@H](c1ccc(F)cc1)N(Cc1cccc(C(=O)O)c1)C(=O)c1cnc2ccccc2c1` [PF-05105679], the residual activity [1] is reported as 100%, the residual activity [2] is reported as 100% and the residual activity [3] is reported as 100%. It also gave a residual activity [4] of 100%, a residual activity [5] of 100% and a residual activity [6] of 79%. For the same compound, the residual activity [7] was 69%, the IC50 [8] was 13.8 nM (active) and the inhibition [9] was 18%. It also gave a residual activity [10] of 100%, a residual activity [11] of 100% and a residual activity [12] of 100%. It also gave a residual activity [13] of 100%, a residual activity [14] of 91% and a residual activity [15] of 90%. It also gave an inhibition [16] of -0.5%, a residual activity [17] of 100% and a residual activity [18] of 100%. For the same compound, the residual activity [19] was 65%, the residual activity [20] was 97% and the residual activity [21] was 100%. The residual activity [22] was 80%, the residual activity [23] was 100% and the residual activity [24] was 100%. The residual activity [25] was 76%, the residual activity [26] was 100% and the residual activity [27] was 100%. For the same compound, the residual activity [28] was 100%, the residual activity [29] was 100% and the residual activity [30] was 100%. It also gave a residual activity [31] of 100%, a residual activity [32] of 85% and a residual activity [33] of 84%. The residual activity [34] was 100%, the residual activity [35] was 100% and the residual activity [36] was 100%. It also gave a residual activity [37] of 100%, a residual activity [38] of 94% and a residual activity [39] of 100%. It also gave a residual activity [40] of 86%, a residual activity [41] of 86% and a residual activity [42] of 100%. For the same compound, the residual activity [43] was 100%, the residual activity [44] was 100% and the residual activity [45] was 64%. It also gave a residual activity [46] of 100%.
